From patent publication US9708279B2, “2-acylaminothiazoles for the treatment of cancer” (UNIVERSITA′ DEGLI STUDI DI MILANO-BICOCCA, priority 2013, dated 2017)
Like-named read-outs stand apart in the source and are kept apart here.

What was measured:
[1] = biological target: recombinant wild-type ALK kinase (rALK) (Homo sapiens (Human), UniProt Q9UM73); experiment: ELISA-based in vitro kinase assay, wild-type ALK; assay type: biochemical; conditions: 0.3 mM ATP, read-out: ALK WT IC50
Procedure: ELISA-Based in vitro Kinase Assay
GST-tagged recombinant wild-type or L1196M mutated ALK kinase (rALK) was expressed in Sf9 insect cells using the pBacPAK baculovirus vector system (Clontech) and purified using Glutathione Sepharose 4B affinity beads (GE Healthcare). Recombinant 3C protease was used to remove the GST tag. Purified ALK was used to screen inhibitors in the ELISA-based kinase assay, as follows: Nunc-Immuno 96-well plates were incubated overnight at 30° C. with coating solution containing 2 μg of a specific ALK peptide substrate ([sequence]) in PBS. Wells were then washed with 200 μL of wash buffer (PBS-Tween 0.05%) and incubated with 4% BSA in PBS for at least 2 h at 30° C. The kinase reaction was performed in the presence of 50 mM Tris pH 7.5, 5 mM MnCl2, 5 mM MgCl2, 0.3 mM ATP and purified rALK in a total volume of 100 μL/well at 30° C. for 15 min. For inhibitor testing the reaction mix was preincubated with inhibitor or vehicle for 10 min at room temperature before transferring to the ELISA plate. After the reaction, the wells were washed 5 times with 200 uL of wash buffer. Phosphorylated peptide was detected using 100 μL/well of a mouse monoclonal anti-phosphotyrosine antibody (clone 4G10 UpstateBiotech Ltd) diluted 1:2000 in PBS+4% BSA. After 30 min incubation at room temperature the antibody was removed and wells were washed as described above. 100 μL of a secondary antibody (anti-mouse IgG, Horseradish Peroxidase linked whole antibody, Amersham Pharmacia Biotech) diluted 1:1000 in PBS+4% BSA was added to each well and the plate was incubated again for 30 min at room temperature before washing as above. The plate was developed using 100 μL/well TMB Substrate Solution (Pierce) and the reaction was stopped by adding an equal volume of 1M H2SO4. Finally, the absorbance was read at 450 nm using an ELISA plate reader (Bio-Rad).

[2] = system: parental untransformed BaF3 cells; experiment: Tritiated thymidine uptake cell proliferation assay, parental BaF3; assay type: cell-based; conditions: Mus musculus
Procedure: (§1) Tritiated Thymidine Uptake Cell Proliferation Assay
The parent untransformed BaF3 cells and ALK-negative cells are used as controls. Cells are seeded in U-bottomed 96-well plates at 10 000 cells/well in a volume of 100 μL in supplemented medium. In the case of the parent untransformed BaF3 cells, the medium is supplemented with IL-3. Serial dilutions of inhibitors are added to the appropriate wells and volumes adjusted to 200 μL. Controls were treated with the equivalent volume of vehicle, DMSO, alone. Plates are incubated at 37° C. for 72 h. ^3[H]-thymidine (1 μCiCi/well) is added for the last 8 h of incubation. Cells are harvested on to paper filters and ^3[H]-thymidine incorporation is measured using a β scintillation counter (1430 MicroBeta, Wallac, Turku, Finland). The 50% inhibitory concentration (IC50) is defined as the concentration of inhibitor, expressed in micromolar, that give a 50% decrease in ^3[H]-thymidine uptake compared with controls.

[3] = system: BaF3 cells transformed with the oncogenic fusion protein NPM/ALK; experiment: Tritiated thymidine uptake cell proliferation assay, BaF3 NPM/ALK; assay type: cell-based; conditions: for IC50: BaF3 NPM/ALK cells, 72 h, 3H-thymidine uptake, read-out: NPM/ALK WT IC50; for Selectivity Index (WT): parental BaF3 versus BaF3 NPM/ALK WT
Procedure: as §1
The parent untransformed BaF3 cells and ALK-negative cells are used as controls. Cells are seeded in U-bottomed 96-well plates at 10 000 cells/well in a volume of 100 μL in supplemented medium. In the case of the parent untransformed BaF3 cells, the medium is supplemented with IL-3. Serial dilutions of inhibitors are added to the appropriate wells and volumes adjusted to 200 μL. Controls were treated with the equivalent volume of vehicle, DMSO, alone. Plates are incubated at 37° C. for 72 h. ^3[H]-thymidine (1 μCiCi/well) is added for the last 8 h of incubation.

[4] = parental BaF3 cells (IL-3), 72 h, 3H-thymidine uptake, read-out: Parental IC50

recombinant wild-type ALK kinase (rALK), sequence (Q9UM73 19-1620): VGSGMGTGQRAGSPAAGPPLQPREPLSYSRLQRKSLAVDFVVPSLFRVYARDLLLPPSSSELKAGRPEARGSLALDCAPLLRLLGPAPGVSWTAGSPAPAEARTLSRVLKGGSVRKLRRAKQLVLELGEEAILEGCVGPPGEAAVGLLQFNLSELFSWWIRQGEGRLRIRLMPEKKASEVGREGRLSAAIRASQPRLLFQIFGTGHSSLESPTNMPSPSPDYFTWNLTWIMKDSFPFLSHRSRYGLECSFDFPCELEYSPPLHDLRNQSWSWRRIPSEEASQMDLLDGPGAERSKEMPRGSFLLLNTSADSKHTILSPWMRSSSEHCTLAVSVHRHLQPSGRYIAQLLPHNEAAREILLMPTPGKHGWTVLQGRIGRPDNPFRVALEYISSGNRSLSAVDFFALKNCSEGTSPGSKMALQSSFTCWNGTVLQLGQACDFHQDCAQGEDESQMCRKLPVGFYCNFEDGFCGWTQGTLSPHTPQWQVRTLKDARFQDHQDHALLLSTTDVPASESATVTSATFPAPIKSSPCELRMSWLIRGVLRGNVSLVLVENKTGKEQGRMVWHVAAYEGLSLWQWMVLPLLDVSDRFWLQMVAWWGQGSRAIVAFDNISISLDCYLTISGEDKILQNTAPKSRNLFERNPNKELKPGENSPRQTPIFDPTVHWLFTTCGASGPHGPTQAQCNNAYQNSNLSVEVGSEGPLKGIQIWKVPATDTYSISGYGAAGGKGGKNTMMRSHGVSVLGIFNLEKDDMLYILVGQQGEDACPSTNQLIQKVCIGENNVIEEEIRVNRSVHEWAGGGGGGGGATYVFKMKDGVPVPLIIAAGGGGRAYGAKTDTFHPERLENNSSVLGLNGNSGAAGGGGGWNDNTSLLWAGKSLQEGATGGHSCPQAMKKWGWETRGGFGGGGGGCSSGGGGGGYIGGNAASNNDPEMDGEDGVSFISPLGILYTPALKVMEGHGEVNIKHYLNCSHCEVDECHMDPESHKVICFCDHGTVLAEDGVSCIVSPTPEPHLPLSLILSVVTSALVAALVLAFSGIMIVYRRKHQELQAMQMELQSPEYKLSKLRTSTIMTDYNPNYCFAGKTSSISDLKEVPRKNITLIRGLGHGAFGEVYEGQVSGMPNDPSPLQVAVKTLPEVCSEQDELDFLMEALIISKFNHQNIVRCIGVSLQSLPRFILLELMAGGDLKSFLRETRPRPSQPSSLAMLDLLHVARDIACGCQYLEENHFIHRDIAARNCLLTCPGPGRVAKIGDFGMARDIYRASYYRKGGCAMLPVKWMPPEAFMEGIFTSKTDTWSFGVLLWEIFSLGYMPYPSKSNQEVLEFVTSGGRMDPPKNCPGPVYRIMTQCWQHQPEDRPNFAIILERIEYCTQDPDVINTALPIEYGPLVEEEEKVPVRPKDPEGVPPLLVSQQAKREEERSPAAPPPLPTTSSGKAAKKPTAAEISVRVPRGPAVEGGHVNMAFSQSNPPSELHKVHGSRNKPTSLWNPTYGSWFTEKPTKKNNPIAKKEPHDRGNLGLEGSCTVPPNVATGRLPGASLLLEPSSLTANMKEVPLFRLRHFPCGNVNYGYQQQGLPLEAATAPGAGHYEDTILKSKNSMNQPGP

Compound	IC50 [1] [µM]	IC50 [2, 4] [µM]	IC50 [3] [µM]	Selectivity Index (WT) [3]	IC50 ([2]; BaF3, read-out: Parental IC50) [µM]
Cc1ccc(-c2csc(NC(=O)c3ccc(CN4CCN(C)CC4)cc3)n2)cc1C#Cc1ccc(F)cc1 [Example 9, N-(4-(3-((4-fluorophenyl)ethynyl)-4-methylphenyl)thiazol-2-yl)-4-((4-methylpiperazin-1-yl)methyl)benzamide]	> 100	4	2.3	2	
CC(C)[Si](C#Cc1cccc(-c2csc(NC(=O)c3ccc(CNCCN(C)C)cc3)n2)c1)(C(C)C)C(C)C [Example 44, 4-(((2-(dimethylamino)ethyl)amino)methyl)-N-(4-(3-((triisopropylsilyl)ethynyl)phenyl)thiazol-2-yl)benzamide]	> 100	7.8	5.1		
CN1CCN(C(=O)c2ccc(-c3ccc(C(=O)Nc4nc(-c5cccc(C#Cc6cc(C(F)(F)F)cc(C(F)(F)F)c6)c5)cs4)o3)cc2)CC1 [Example 34, N-(4-(3-((3,5-bis(trifluoromethyl)phenyl)ethynyl)phenyl)thiazol-2-yl)-5-(4-(4-methylpiperazine-1-carbonyl)phenyl)furan-2-carboxamide]	> 100	4	1.9	2	
COc1ccc(C#Cc2cc(-c3csc(NC(=O)c4ccc(CN5CCN(C)CC5)cc4)n3)ccc2C)cc1 [Example 6, N-(4-(3-((4-methoxyphenyl)ethynyl)-4-methylphenyl)thiazol-2-yl)-4-((4-methylpiperazin-1-yl)methyl)benzamide]	> 100	6.6	2.1	3	
O=C(Nc1nc(-c2cccc(C#Cc3cc(C(F)(F)F)cc(C(F)(F)F)c3)c2)cs1)c1ccc(CN2CCOCC2)cc1 [Example 39, N-(4-(3-((3,5-bis(trifluoromethyl)phenyl)ethynyl)phenyl)thiazol-2-yl)-4-(morpholinomethyl)benzamide]	> 100	33	9	4	
CN1CCN(C(=O)c2ccc(-c3ccc(C(=O)Nc4nc(-c5cccc(C#Cc6ccccc6OC(F)(F)F)c5)cs4)o3)cc2)CC1 [Example 43, 5-(4-(4-methylpiperazine-1-carbonyl)phenyl)-N-(4-(3-((2-(trifluoromethoxy)phenyl)ethynyl)phenyl)thiazol-2-yl)furan-2-carboxamide]	> 100	4.5	4.9	1	
CN1CCN(C(=O)c2ccc(-c3ccc(C(=O)Nc4nc(-c5cccc(C#C[Si](C)(C)C(C)(C)C)c5)cs4)o3)cc2)CC1 [Example 27, N-(4-(3-((tert-butyldimethylsilyl)ethynyl)phenyl)thiazol-2-yl)-5-(4-(4-methylpiperazine-1-carbonyl)phenyl)furan-2-carboxamide]					2.3
Cc1cc(-c2csc(NC(=O)c3ccc(CN4CCN(C)CC4)cc3)n2)ccc1C#Cc1ccccc1C(F)(F)F [Example 11, N-(4-(3-methyl-4-((2-(trifluoromethyl)phenyl)ethynyl)phenyl)thiazol-2-yl)-4-((4-methylpiperazin-1-yl)methyl)benzamide]					3.2
COc1ccc(C#Cc2cccc(-c3csc(NC(=O)c4ccc(CN5CCN(C)CC5)cc4)n3)c2)cc1 [Example 3, N-(4-(3-((4-methoxyphenyl)ethynyl)phenyl)thiazol-2-yl)-4-((4-methylpiperazin-1-yl)methyl)benzamide]					2.3
CC(C)[Si](C#Cc1cccc(-c2csc(NC(=O)c3ccc(Cn4ccnc4)cc3)n2)c1)(C(C)C)C(C)C [Example 46, 4-((1H-imidazol-1-yl)methyl)-N-(4-(3-((triisopropylsilyl)ethynyl)phenyl)thiazol-2-yl)benzamide]					11
C#Cc1cccc(-c2csc(NC(=O)c3ccc(CN4CCN(C)CC4)cc3)n2)c1 [Example 49, N-(4-(3-ethynylphenyl)thiazol-2-yl)-4-((4-methylpiperazin-1-yl)methyl)benzamide]					4
CN1CCN(C(=O)c2ccc(-c3ccc(C(=O)Nc4nc(-c5cccc(C#Cc6ccccc6C(F)(F)F)c5)cs4)o3)cc2)CC1 [Example 29, 5-(4-(4-methylpiperazine-1-carbonyl)phenyl)-N-(4-(3-((2-(trifluoromethyl)phenyl)ethynyl)phenyl)thiazol-2-yl)furan-2-carboxamide]					10
Cc1ccc(-c2csc(NC(=O)c3ccc(CN4CCN(C)CC4)cc3)n2)cc1C#Cc1ccccc1 [Example 4, N-(4-(4-methyl-3-(phenylethynyl)phenyl)thiazol-2-yl)-4-((4-methylpiperazin-1-yl)methyl)benzamide]					5.3
CC[Si](C#Cc1cccc(-c2csc(NC(=O)c3ccc(CN4CCN(C)CC4)cc3)n2)c1)(CC)CC [Example 17, 4-((4-methylpiperazin-1-yl)methyl)-N-(4-(3-((triethylsilyl)ethynyl)phenyl)thiazol-2-yl)benzamide]					0.46
C#CCN1CCN(Cc2ccc(C(=O)Nc3nc(-c4cccc(C#C[Si](C(C)C)(C(C)C)C(C)C)c4)cs3)cc2)CC1 [Example 50, 4-((4-(prop-2-yn-1-yl)piperazin-1-yl)methyl)-N-(4-(3-((triisopropylsilyl)ethynyl)phenyl)thiazol-2-yl)benzamide]					> 50
CN1CCN(Cc2ccc(C(=O)Nc3nc(-c4ccc(C#Cc5cc(C(F)(F)F)cc(C(F)(F)F)c5)cc4)cs3)cc2)CC1 [Example 36, N-(4-(4-((3,5-bis(trifluoromethyl)phenyl)ethynyl)phenyl)thiazol-2-yl)-4-((4-methylpiperazin-1-yl)methyl)benzamide]					6.9
CN1CCN(Cc2ccc(C(=O)Nc3nc(-c4cccc(C#Cc5cc(C(F)(F)F)cc(C(F)(F)F)c5)c4)cs3)cc2)CC1 [Example 33, N-(4-(3-((3,5-bis(trifluoromethyl)phenyl)ethynyl)phenyl)thiazol-2-yl)-4-((4-methylpiperazin-1-yl)methyl)benzamide]					7.1
CC(C)OC(=O)CNCc1ccc(C(=O)Nc2nc(-c3cccc(C#C[Si](C(C)C)(C(C)C)C(C)C)c3)cs2)cc1 [Example 47, isopropyl 2-((4-((4-(3-((triisopropylsilyl)ethynyl)phenyl)thiazol-2-yl)carbamoyl)benzyl)amino)acetate]					> 25
CN1CCN(Cc2ccc(C(=O)Nc3nc(-c4cccc(C#Cc5ccccc5)c4)cs3)cc2)CC1 [Example 1, 4-((4-methylpiperazin-1-yl)methyl)-N-(4-(3-(phenylethynyl)phenyl)thiazol-2-yl)benzamide]					4.7
